The values that follow come from publication PMC9762412 (SLAS discovery : advancing life sciences R & D, 2022).

Entries after “also recorded” stand apart in the source; their conditions may differ.

The test system of test [1] is CRF1+ neurons in the central nucleus of the amygdala (CeA). Briefly: Electrophysiology, mIPSCs of CRF1+ neurons in CeA slices. More on the design: species or system mouse.
The subject of test [2] is VTA dopamine neurons, NMDAR EPSCs. Briefly: Electrophysiology, NMDAR EPSCs of VTA dopamine neurons in slices. Set-up: species or system mouse. The following applies: CRF 1 μM, VTA-DA neurons, male and female mice.

With `CC[C@H](C)[C@H](NC(=O)[C@@H](NC(=O)[C@H](CCC(=O)O)NC(=O)[C@H](CCSC)NC(=O)[C@H](CC(C)C)NC(=O)[C@H](CCCCN)NC(=O)[C@H](CCCNC(=N)N)NC(=O)[C@H](CC(N)=O)NC(=O)[C@H](CO)NC(=O)[C@H](Cc1c[nH]cn1)NC(=O)[C@H](C)NC(=O)[C@H](CCC(N)=O)NC(=O)[C@H](CCC(N)=O)NC(=O)[C@H](C)NC(=O)[C@H](CC(C)C)NC(=O)[C@H](CCC(N)=O)NC(=O)[C@H](CCC(=O)O)NC(=O)[C@H](C)NC(=O)[C@H](CCCNC(=N)N)NC(=O)[C@H](C)NC(=O)[C@H](CCSC)NC(=O)[C@H](CCC(=O)O)NC(=O)[C@H](CC(C)C)NC(=O)[C@@H](NC(=O)[C@H](CCC(=O)O)NC(=O)[C@H](CCCNC(=N)N)NC(=O)[C@H](CC(C)C)NC(=O)[C@H](CC(C)C)NC(=O)[C@H](Cc1c[nH]cn1)NC(=O)[C@H](Cc1ccccc1)NC(=O)[C@@H](NC(=O)[C@H](CC(C)C)NC(=O)[C@H](CC(=O)O)NC(=O)[C@H](CC(C)C)NC(=O)[C@H](CO)NC(=O)[C@@H](NC(=O)[C@@H]1CCCN1C(=O)[C@@H]1CCCN1C(=O)[C@H](CCC(=O)O)NC(=O)[C@H](CCC(=O)O)NC(=O)[C@@H](N)CO)[C@@H](C)CC)[C@@H](C)O)C(C)C)[C@@H](C)CC)C(N)=O` [CRF, corticotropin releasing factor], the “Change in mIPSC properties by CRF after pre-treatment” value in test [1] is on record as “did not induce changes; also recorded: do not produce significant changes”. Besides, in test [2], the “Effect of CRF on NMDA receptor EPSCs” value is recorded as “potentiated”.
